Laboratory results taken from ChEMBL document CHEMBL1158086, “Phenolic marine natural products as aldose reductase inhibitors” (J Nat Prod, 2006).

Assay: Inhibition of human recombinant ALR2

Structure (SMILES) | IC50 [µM]
O=c1oc(-c2ccc(O)cc2)cn2cc(-c3ccc(O)c(I)c3)c(-c3ccc(O)cc3)c12 [LUKIANOL B] | 0.6
O=C1C=C(c2cc(Br)c(O)c(Br)c2)/C(=C/c2cc(Br)c(O)c(Br)c2)O1 [RUBROLIDE A] | 19.8
O=C(c1ccc(O)cc1)c1nc(-c2ccc(O)cc2)c[nH]1 | 21.4
O=C1C=C(c2ccc(O)cc2)/C(=C/c2cc(Br)c(O)c(Br)c2)O1 | > 57
O=C1O/C(=C\c2ccc(O)c(Br)c2)C(c2ccc(O)c(Br)c2)=C1Cl | 16.9
O=C1C=C(c2ccc(O)c(Br)c2)/C(=C/c2cc(Br)c(O)c(Br)c2)O1 [RUBROLIDE J] | 48.1
O=C1O/C(=C\c2cc(Br)c(O)c(Br)c2)C(c2ccc(O)cc2)=C1Cl | 0.8
O=C(c1ccc(O)cc1)c1ncc(-c2ccc(O)cc2)nc1C(=O)c1ccc(O)cc1 | 19.4
O=C(c1ccc(O)cc1)c1cncc(-c2ccc(O)cc2)n1 | 41.4
O=C1O/C(=C\c2ccc(O)c(Br)c2)C(c2ccc(O)cc2)=C1Cl | 46.2
O=C1O/C(=C\c2cc(Br)c(O)c(Br)c2)C(c2ccc(O)c(Br)c2)=C1Cl | 12.7
O=C1NC(=O)[C@@]2(CCOc3ccc(F)cc32)N1 [SORBINIL] | 3.6
O=C1O/C(=C\c2cc(Br)c(O)c(Br)c2)C(c2cc(Br)c(O)c(Br)c2)=C1Cl | 18.7
